Legend:
[1] = tested on: c-myc; assay: Inhibition of c-myc expression (mRNA, real-time PCR) in MV4-11 cells; format: cell-based; conditions: Human AML MV4-11 cells, 3 h, cMYC mRNA
How it was run: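 MV4-11 cells treated 3 h at 37° C with increasing compound concentrations or 0.1% DMSO, in triplicate. cMYC mRNA quantified by one-step TaqMan real-time PCR, Ct normalized to internal control (Cyclophilin primers used), fold expression relative to control.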

[2] = tested on: hIL-17 mRNA; assay: Inhibition of hIL-17 mRNA transcription in OKT3-stimulated peripheral blood mononuclear cells; format: cell-based; conditions: PBMC, human peripheral blood mononuclear cells, OKT3 antibody, 6 h, read-out: IL-17 activity
Procedure: In this example, hIL-17 mRNA in human peripheral blood mononuclear cells was quantitated to measure the transcriptional inhibition of hIL-17 when treated with a compound of the invention.
Human peripheral blood mononuclear cells were plated (2.0×10^5 cells per well) in a 96-well plate in 45 μL OpTimizer T Cell expansion media containing 20 ng/ml IL-2 and penicillin/streptomycin. The cells were treated with the test compound (45 μL at 2× concentration), and then the cells were incubated at 37° C. for 1 h before addition of 10× stock OKT3 antibody at 10 μg/ml in media. Cells were incubated at 37° C. for 6 h before the cells were harvested. At time of harvest, cells were centrifuged (800 rpm, 5 min). Spent media was removed and cell lysis solution (70 μL) was added to the cells in each well and incubated for 5-10 min at room temperature, to allow for complete cell lysis and detachment. mRNA was then prepared using the “mRNA Catcher PLUS plate” (Invitrogen), according to the protocol supplied. After the last wash, as much wash buffer as possible was aspirated without allowing the wells to dry. Elution buffer (E3, 70 μL) was then added to each well. mRNA was then eluted by incubating the mRNA Catcher PLUS plate with Elution Buffer for 5 min at 68° C. and then immediately placing the plate on ice.
The eluted mRNA isolated was then used in a one-step quantitative RT-PCR reaction, using components of the Ultra Sense Kit together with Applied Biosystems primer-probe mixes. Real-time PCR data was analyzed, normalizing the Ct values for hIL-17 to an internal control, prior to determining the fold induction of each unknown sample, relative to the control.

[3] = tested on: human AML MV-4-11 cells; assay: Inhibition of cell proliferation in MV4-11 cells (CellTiter Aqueous One); format: cell-based; conditions: MV4-11, 72 h
How it was run: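 Exponentially growing MV-4-11 cells (5×10^4/well) were treated immediately with two-fold dilutions of compound from 30 μM to 0.2 μM, in triplicate, for 72 h at 37° C, 5% CO2. Viability was measured by MTS absorbance at 490 nm after 3–4 h. Proliferation relative to DMSO after blank correction gave IC50.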

[4] = biological target: T1, Brd4 bromodomain 1 (BRD4(1)) (Homo sapiens, UniProt O60885); assay: Inhibition of tetra-acetylated histone H4 binding to Brd4 bromodomain 1 (TR-FRET); conditions: tetra-acetylated histone H4 peptide, first bromodomain of Brd4
T1 construct: made in house; host or cells: E. coli BL21(DE3)
How it was run: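 His-tagged BRD4(1) from E. coli (200 nM) with biotinylated tetra-acetylated H4 peptide (25-50 nM), Eu-cryptate streptavidin and XL665 anti-His, in HEPES pH 7.4/phosphate/KF buffer, 0.2% DMSO. After 2 h at room temperature, TR-FRET 665/620 nm ratio read; IC50 from dose-response curves.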

Cc1noc(C)c1-c1cc(N)c2ncn(Cc3ccccc3)c2c1 [Example Compound 7, 1-Benzyl-6-(3,5-dimethylisoxazol-4-yl)-1H-benzo[d]imidazol-4-amine]
IC50 [1]: 0.3 to 3 µM | IC50 [2]: ≤ 0.3 µM | IC50 [3]: ≤ 0.3 µM | IC50 [4]: ≤ 0.3 µM
